In BindingDB's records for doi:10.1016/j.ejmech.2014.01.004 (Future University, 2014):

Biological target: T1, Dihydrofolate reductase (Bos taurus, UniProt P00376)
T1 sequence (P00376 whole entry): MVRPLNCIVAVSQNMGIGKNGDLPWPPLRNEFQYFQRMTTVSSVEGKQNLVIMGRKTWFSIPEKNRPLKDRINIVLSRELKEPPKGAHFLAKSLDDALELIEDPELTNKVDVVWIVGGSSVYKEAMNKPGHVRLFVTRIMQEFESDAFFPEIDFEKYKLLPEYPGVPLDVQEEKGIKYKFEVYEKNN
Assay: Inhibition of bovine liver DHFR measured for every 1 min of 10 mins

IC50 | SMILES
100 nM | Clc1cc2c(cc1Cl)N=C(c1ccc(Br)cc1)C1CCCC(=Cc3ccc(Br)cc3)C1=N2 (configuration not stated)
100 nM | COc1ccc(C=C2CCCC3C2=Nc2cc(C)c(C)cc2N=C3c2ccc(OC)cc2)cc1 (configuration not stated)
